In US10286004B2, “Targeting-enhanced anticancer nanoparticles and preparation methods of same” (JINIS CO., LTD., priority 2013, dated 2019):

Tests used:
[1] = Tumor targeting efficacy: drug distribution between tumor and healthy tissues in xenograft mice (LC/MS); format: in vivo; conditions: female, athymic nude, mouse, iv; tumor tissue; 10 mg/kg/day i.v.; organs collected 16 hours after administration
Protocol: (§1) To evaluate the tumor-targeting characteristics of the targeting-enhanced nanoparticles formulated in the Examples 1 and 2, the nanoparticles were injected into mice containing human breast xenograft tumors, and the distribution of radioactivity between tumor tissues and healthy tissues was analyzed.
(§2) When the tumors reached a size of ˜100 mm^3, mice were treated intravenously with either saline control or nanoparticle preparations prepared in Examples 1 and 2, at a dose of 10 mg/kg/day. Organs from each mouse were collected at 16 hours after nanoparticle administration and ground completely with the Beadbeater. The analyte drugs were extracted from the ground tissues with acetonitrile, and the drug concentrations in each tissue were analyzed by LC/MS. The drug concentrations delivered to each tissue relative to the Injected Dose (ID) were measured in both healthy and tumor tissues, as shown in Table 3.
(§3) Targeting-enhanced nanoparticles containing paclitaxel were administered intravenously to mice with tumor xenografts, and at 4 hours after injection, the mice were exposed to a light-emitting diode, LED, at the wavelength of 630 nm at an intensity of […] for 30 minutes.

[2] = test system: human breast xenograft tumors (MDA-MB-231); test: as above; format: in vivo; conditions: 10 mg/kg/day i.v., organs collected 16 hours after administration; for healthy % ID/g: healthy tissues
Protocol: as §1, §2, §3

[3] = test system: large-sized tumor xenografts representing late-stage cancer; test: Efficacy of doxorubicin nanoparticles in late-stage cancer xenograft; format: in vivo, mice; conditions: without LED stated
Protocol: The lung cancer cell line NCI-H460-luc2 (Caliper Life Sciences) was prepared in suspension at 5×10^6 cells.
Tumor growth was monitored using bioluminescence imaging of luciferase-expressing cancer cell lines. Mice were injected intraperitoneally with D-luciferin at a dosage of 150 mg luciferin/kg body weight. Mice were then anesthetized under isoflurane gas supplemented with oxygen and placed under a camera equipped with a Xenogen IVIS 200 imager to generate a bioluminescent image using an IVIS imaging system (Xenogen). Bioluminescence color images were superimposed using Living Image software.

healthy mice = test: Toxicity (LD50) in healthy mice; format: in vivo; conditions: monitored 14 days, based on mortality
Protocol: After establishment of the tumor-xenograft model, either healthy mice or tumor-xenografted mice were divided into three groups (n=6) receiving saline solution (control group), free paclitaxel at the indicated dose, or targeting-enhanced nanoparticles in saline solution at the indicated dose of paclitaxel. […] To evaluate their toxicity, targeting-enhanced nanoparticles were administered to healthy mice and tumor-xenograft mice at 10 different dosages of paclitaxel: 20, 40, 60, 80, 100, 120, 250, 300, 350, and 400 mg/kg/day. Body weights and physical changes were monitored over 14 days, and the LD50s were calculated based on mortality.

| Compound | tissue uptake at 16 h [1] | healthy % ID/g [2] | tumor growth day 0 to day 28 (FIG. 10) [3] | tumor % ID/g ([2]; tumor tissue) | LD50 (healthy mice) |
| --- | --- | --- | --- | --- | --- |
| COc1cccc2c1C(=O)c1c(O)c3c(c(O)c1C2=O)C[C@@](O)(C(=O)CO)C[C@@H]3O[C@H]1C[C@H](N)[C@H](O)[C@H](C)O1 [Free drug doxorubicin, doxorubicin] | 1.5 %ID/g | 0.4~3.4 % ID/g | clear tumor growth | – | – |
| Nc1ccn([C@@H]2O[C@H](CO)[C@@H](O)C2(F)F)c(=O)n1 [Free drug gemcitabine, gemcitabine] | 2.4 %ID/g | 0.2~4.2 % ID/g | – | – | – |
| O=C1[O][Pt]2([NH][C@@H]3CCCC[C@H]3[NH]2)[O]C1=O [Free drug oxaliplatin, oxaliplatin] | – | 0.1~3.5 % ID/g | – | 2.5 % ID/g | – |
| CC(=O)O[C@H]1C(=O)[C@@]2(C)[C@H]([C@H](OC(=O)c3ccccc3)[C@]3(O)C[C@H](OC(=O)[C@H](O)[C@@H](NC(=O)c4ccccc4)c4ccccc4)C(C)=C1C3(C)C)[C@]1(OC(C)=O)CO[C@@H]1C[C@@H]2O [Free drug paclitaxel, paclitaxel] | 0.52 %ID/g | – | – | – | 30 mg/kg/day |
